Several values for one entry are separate records, joined by “and”; a condition that tells them apart may be missing. Equal values may be shown once. Read-outs that look alike come from different tables or passages of the source.
How the values were obtained:
TNKS2 = TNKS2 (Homo sapiens (Human), UniProt Q9H2K2); assay: Biochemical IC50 TNKS2
Source text: (§1) XLfit (idbs) was used to determine the IC50-values in inhibition experiments. The following formula was chosen to fit the data points (Langmuir Binding Isotherm): fit=((A+(B*x))+4(C−B)*(1−exp((−1*D)*x)))/D)), res=(y−fit)

HEK293 = assay: Cellular IC50 HEK293; assay type: cell-based
Source text: as §1

[1] = Homo sapiens, HEK293, HEK293; read-out: Cellular IC50 HEK293
[2] = read-out: Biochemical IC50 TNKS2
[3] = Homo sapiens, HEK293; read-out: Cellular IC50 HEK293

TNKS2, sequence (Q9H2K2 whole entry): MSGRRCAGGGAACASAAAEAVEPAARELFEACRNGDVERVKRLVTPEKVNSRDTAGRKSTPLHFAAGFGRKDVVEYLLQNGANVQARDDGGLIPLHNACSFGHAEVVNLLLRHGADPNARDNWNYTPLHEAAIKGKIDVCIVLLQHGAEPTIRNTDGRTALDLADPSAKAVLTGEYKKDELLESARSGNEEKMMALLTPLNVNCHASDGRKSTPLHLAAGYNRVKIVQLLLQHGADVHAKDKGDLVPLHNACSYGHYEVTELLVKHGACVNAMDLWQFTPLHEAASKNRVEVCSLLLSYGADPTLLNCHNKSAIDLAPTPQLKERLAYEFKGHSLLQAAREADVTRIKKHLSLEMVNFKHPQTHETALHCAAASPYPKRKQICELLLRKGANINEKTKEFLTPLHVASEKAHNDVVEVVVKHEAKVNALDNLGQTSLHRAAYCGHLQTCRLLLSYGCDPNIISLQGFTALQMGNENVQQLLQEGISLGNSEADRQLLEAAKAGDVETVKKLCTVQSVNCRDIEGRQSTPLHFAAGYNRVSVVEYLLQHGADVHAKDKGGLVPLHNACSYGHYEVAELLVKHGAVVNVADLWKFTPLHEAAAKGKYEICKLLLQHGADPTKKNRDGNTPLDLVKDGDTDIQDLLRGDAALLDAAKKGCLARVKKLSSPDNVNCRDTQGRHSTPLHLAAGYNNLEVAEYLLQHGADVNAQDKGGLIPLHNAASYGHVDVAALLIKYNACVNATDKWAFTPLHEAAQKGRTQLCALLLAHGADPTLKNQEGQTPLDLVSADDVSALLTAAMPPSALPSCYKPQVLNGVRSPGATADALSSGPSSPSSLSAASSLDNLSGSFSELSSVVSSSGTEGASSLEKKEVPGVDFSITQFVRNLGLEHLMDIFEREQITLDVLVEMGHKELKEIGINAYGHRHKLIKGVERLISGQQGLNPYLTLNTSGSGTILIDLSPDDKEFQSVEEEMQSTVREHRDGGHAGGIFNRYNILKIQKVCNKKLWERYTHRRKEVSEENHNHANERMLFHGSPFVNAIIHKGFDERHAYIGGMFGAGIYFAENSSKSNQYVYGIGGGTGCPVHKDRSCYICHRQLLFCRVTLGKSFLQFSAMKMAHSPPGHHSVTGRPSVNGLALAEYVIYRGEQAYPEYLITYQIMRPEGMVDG

Structure (SMILES)	IC50 (TNKS2) [nM]	IC50 (HEK293; [1]) [nM]	IC50 (TNKS2; [2])	IC50 (HEK293; [3]) [nM]	IC50 (HEK293; Homo sapiens, HEK293, read-out: Cellular IC50 HEK293) [nM]
CCOc1ccc(-c2nnc([C@H]3C[C@H](NC(=O)c4ccc(C(C)O)cn4)C3)n2-c2ccccc2F)nc1 (mixture of isomers) [Example 100, rac-N-((1R,3r)-3-(5-(5-ethoxypyridin-2-yl)-4-(2-fluorophenyl)-4H-1,2,4-triazol-3-yl)cyclobutyl)-5-(1-hydroxyethyl)picolinamide]	8.2	48			
O=C(N[C@H]1C[C@H](c2nnc(-c3ccncn3)n2-c2ccccc2Cl)C1)c1cccc2cccnc12 [Example 4, N-((1S,3r)-3-(4-(2-chlorophenyl)-5-(pyrimidin-4-yl)-4H-1,2,4-triazol-3-yl)cyclobutyl)quinoline-8-carboxamide]		1	5.4 nM		
O=C(N[C@H]1C[C@H](c2nnc(-c3ccncn3)n2-c2ccccc2Cl)C1)c1ccnc2cccnc12 [Example 5, N-((1S,3r)-3-(4-(2-chlorophenyl)-5-(pyrimidin-4-yl)-4H-1,2,4-triazol-3-yl)cyclobutyl)-1,5-naphthyridine-4-carboxamide]			0.85 nM	1	
O=C(N[C@H]1C[C@H](c2nnc(-c3ccncn3)n2-c2ccccc2Cl)C1)c1ccnc2ccccc12 [Example 6, N-((1S,3r)-3-(4-(2-chlorophenyl)-5-(pyrimidin-4-yl)-4H-1,2,4-triazol-3-yl)cyclobutyl)quinoline-4-carboxamide]		1300	680 nM		
O=C(N[C@H]1C[C@H](c2nnc(-c3ccncn3)n2-c2ccccc2Cl)C1)c1cccc2ncccc12 [Example 7, N-((1S,3r)-3-(4-(2-chlorophenyl)-5-(pyrimidin-4-yl)-4H-1,2,4-triazol-3-yl)cyclobutyl)quinoline-5-carboxamide]		750	350 nM		
O=C(N[C@H]1C[C@H](c2nnc(-c3ccncn3)n2-c2ccccc2Cl)C1)c1ccncc1 [Example 8, N-((1S,3r)-3-(4-(2-chlorophenyl)-5-(pyrimidin-4-yl)-4H-1,2,4-triazol-3-yl)cyclobutyl)isonicotinamide]		70	57 nM		
O=C(N[C@H]1C[C@H](c2nnc(-c3ccncn3)n2-c2ccccc2Cl)C1)c1cccnc1 [Example 9, N-((1S,3r)-3-(4-(2-chlorophenyl)-5-(pyrimidin-4-yl)-4H-1,2,4-triazol-3-yl)cyclobutyl)nicotinamide]		50	18 nM		
O=C(N[C@H]1C[C@H](c2nnc(-c3ccncn3)n2-c2ccccc2Cl)C1)c1ccccn1 [Example 10, N-((1S,3r)-3-(4-(2-chlorophenyl)-5-(pyrimidin-4-yl)-4H-1,2,4-triazol-3-yl)cyclobutyl)picolinamide]			1.5 nM	0.2	
O=C(N[C@H]1C[C@H](c2nnc(-c3ccncn3)n2-c2ccccc2Cl)C1)c1ccncn1 [Example 11, N-((1S,3r)-3-(4-(2-chlorophenyl)-5-(pyrimidin-4-yl)-4H-1,2,4-triazol-3-yl)cyclobutyl)pyrimidine-4-carboxamide]		4	3.5 nM		
O=C(N[C@H]1C[C@H](c2nnc(-c3ccncn3)n2-c2ccccc2Cl)C1)c1ccccc1 [Example 12, N-((1S,3r)-3-(4-(2-chlorophenyl)-5-(pyrimidin-4-yl)-4H-1,2,4-triazol-3-yl)cyclobutyl)benzamide]		3	5.5 nM		
O=C(N[C@H]1C[C@H](c2nnc(-c3ccncn3)n2-c2ccccc2Cl)C1)c1ccccc1F [Example 13, N-((1S,3r)-3-(4-(2-chlorophenyl)-5-(pyrimidin-4-yl)-4H-1,2,4-triazol-3-yl)cyclobutyl)-2-fluorobenzamide]		30	6.4 nM		
O=C(N[C@H]1C[C@H](c2nnc(-c3ccncn3)n2-c2ccccc2Cl)C1)c1cccc(F)c1 [Example 14, N-((1S,3r)-3-(4-(2-chlorophenyl)-5-(pyrimidin-4-yl)-4H-1,2,4-triazol-3-yl)cyclobutyl)-3-fluorobenzamide]		40	6.7 nM		
O=C(N[C@H]1C[C@H](c2nnc(-c3ccncn3)n2-c2ccccc2Cl)C1)c1ccc(F)cc1 [Example 15, N-((1S,3r)-3-(4-(2-chlorophenyl)-5-(pyrimidin-4-yl)-4H-1,2,4-triazol-3-yl)cyclobutyl)-4-fluorobenzamide]		30	4.1 nM		
O=C(N[C@H]1C[C@H](c2nnc(-c3ccncn3)n2-c2ccccc2Cl)C1)c1c(F)cccc1F [Example 16, N-((1S,3r)-3-(4-(2-chlorophenyl)-5-(pyrimidin-4-yl)-4H-1,2,4-triazol-3-yl)cyclobutyl)-2,6-difluorobenzamide]		7680			
O=C(N[C@H]1C[C@H](c2nnc(-c3ccncn3)n2-c2ccccc2Cl)C1)c1ccc(F)cn1 [Example 17, N-((1S,3r)-3-(4-(2-chlorophenyl)-5-(pyrimidin-4-yl)-4H-1,2,4-triazol-3-yl)cyclobutyl)-5-fluoropicolinamide]		2.4	2.7 nM		
O=C(N[C@H]1C[C@H](c2nnc(-c3ccncn3)n2-c2ccccc2Cl)C1)c1ncccc1F [Example 18, N-((1S,3r)-3-(4-(2-chlorophenyl)-5-(pyrimidin-4-yl)-4H-1,2,4-triazol-3-yl)cyclobutyl)-3-fluoropicolinamide]		57	37 nM		
O=C(N[C@H]1C[C@H](c2nnc(-c3ccncn3)n2-c2ccccc2Cl)C1)c1cccc(F)n1 [Example 19, N-((1S,3r)-3-(4-(2-chlorophenyl)-5-(pyrimidin-4-yl)-4H-1,2,4-triazol-3-yl)cyclobutyl)-6-fluoropicolinamide]		0.86	3 nM		
O=C(NC12CC(c3nnc(-c4ccncn4)n3-c3ccccc3Cl)(C1)C2)c1ccnc2cccnc12 [Example 21, N-(3-(4-(2-chlorophenyl)-5-(pyrimidin-4-yl)-4H-1,2,4-triazol-3-yl)bicyclo[1.1.1]pentan-1-yl)-1,5-naphthyridine-4-carboxamide]		0.5	1.8 nM		
O=C(NC12CC(c3nnc(-c4ccncn4)n3-c3ccccc3Cl)(C1)C2)c1ccccn1 [Example 22, N-(3-(4-(2-chlorophenyl)-5-(pyrimidin-4-yl)-4H-1,2,4-triazol-3-yl)bicyclo[1.1.1]pentan-1-yl)picolinamide]		25	3.8 nM		
O=C(NC12CC(c3nnc(-c4ccncn4)n3-c3ccccc3Cl)(C1)C2)c1ccccc1 [Example 23, N-(3-(4-(2-chlorophenyl)-5-(pyrimidin-4-yl)-4H-1,2,4-triazol-3-yl)bicyclo[1.1.1]pentan-1-yl)benzamide]		100	3.8 nM		
O=C(N[C@H]1C[C@H](c2nnc(-c3nccs3)n2-c2ccccc2F)C1)c1ccccc1 [Example 27, N-((1S,3r)-3-(4-(2-fluorophenyl)-5-(thiazol-2-yl)-4H-1,2,4-triazol-3-yl)cyclobutyl)benzamide]		470	250 nM		
O=C(N[C@H]1C[C@H](c2nnc(-c3nccs3)n2-c2ccccc2F)C1)c1ccc(F)cc1 [Example 28, 4-fluoro-N-((1S,3r)-3-(4-(2-fluorophenyl)-5-(thiazol-2-yl)-4H-1,2,4-triazol-3-yl)cyclobutyl)benzamide]		240	51 nM		
O=C(N[C@H]1C[C@H](c2nnc(-c3nccs3)n2-c2ccccc2F)C1)c1ccnc2cc(F)cnc12 [Example 29, 7-fluoro-N-((1S,3r)-3-(4-(2-fluorophenyl)-5-(thiazol-2-yl)-4H-1,2,4-triazol-3-yl)cyclobutyl)-1,5-naphthyridine-4-carboxamide]		1.3			
CCOc1ccc(C(=O)N[C@H]2C[C@H](c3nnc(-c4nccs4)n3-c3ccccc3F)C2)nc1 [Example 30, 5-ethoxy-N-((1S,3r)-3-(4-(2-fluorophenyl)-5-(thiazol-2-yl)-4H-1,2,4-triazol-3-yl)cyclobutyl)picolinamide]		16	2 nM		
O=C(N[C@H]1C[C@H](c2nnc(-c3nccs3)n2-c2ccccc2)C1)c1ccccn1 [Example 32, N-((1r,3r)-3-(4-phenyl-5-(thiazol-2-yl)-4H-1,2,4-triazol-3-yl)cyclobutyl)picolinamide]		229	49 nM		
CCOc1ccc(-c2nnc([C@H]3C[C@H](NC(=O)c4ccccn4)C3)n2-c2ccccc2F)nc1 [Example 54, N-((1S,3r)-3-(5-(5-ethoxypyridin-2-yl)-4-(2-fluorophenyl)-4H-1,2,4-triazol-3-yl)cyclobutyl)picolinamide]				17	
CCOc1ccc(-c2nnc([C@H]3C[C@H](NC(=O)c4ccc(F)cc4)C3)n2-c2ccccc2F)nc1 [Example 56, N-((1S,3r)-3-(5-(5-ethoxypyridin-2-yl)-4-(2-fluorophenyl)-4H-1,2,4-triazol-3-yl)cyclobutyl)-4-fluorobenzamide]			10 nM and 2 nM		
CCOc1ccc(-c2nnc([C@H]3C[C@H](NC(=O)c4cccc5cccnc45)C3)n2-c2ccccc2)nc1 [Example 71, N-((1r,3r)-3-(5-(5-ethoxypyridin-2-yl)-4-phenyl-4H-1,2,4-triazol-3-yl)cyclobutyl)quinoline-8-carboxamide]		1.8			
[2H]C([2H])([2H])C([2H])([2H])Oc1ccc(-c2nnc([C@H]3C[C@H](NC(=O)c4ccccn4)C3)n2-c2ccccc2F)nc1 [Example 93, N-((1S,3r)-3-(5-(5-(ethoxy-d5)pyridin-2-yl)-4-(2-fluorophenyl)-4H-1,2,4-triazol-3-yl)cyclobutyl)picolinamide]				9.5	
CCOc1ccc(-c2nnc([C@H]3C[C@H](NC(=O)c4cccc5nccnc45)C3)n2-c2ccccc2F)nc1 [Example 154, N-((1S,3r)-3-(5-(5-ethoxypyridin-2-yl)-4-(2-fluorophenyl)-4H-1,2,4-triazol-3-yl)cyclobutyl)quinoxaline-5-carboxamide]					0.53

From patent publication US11926614B2, “1,2,4-triazole derivatives as tankyrase inhibitors” (priority 2018, dated 2024)
